In one data set the target is mGFP-K-RASG12V (Homo sapiens (Human), UniProt P01116, G12V). In words: K-Ras mislocalization assay (confocal microscopy, Manders coefficient). The data set is classed as cell-based. Also noted: key to Emax: Manders coefficient: fraction of mCherry-CAAX co-localizing with GFP-K-Ras. The following applies: MDCK cells; for IC50: 48 h treatment, read-out: IC50 (μM), KRASG12V mislocalization; for Emax: maximal effect, Manders coefficient, 48 h. In short, it runs like this: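 Readout is the Manders coefficient: share of mCherry-CAAX overlapping mGFP-K-RASG12V in confocal images, proportional to K-Ras mislocalization. Stable MDCK co-expressing lines were exposed 48 h to various drug concentrations or 0.1% DMSO vehicle, then paraformaldehyde-fixed.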

Data set [1] deals with MDCK cells co-expressing GFP-K-RASG12V and mCherry-CAAX. Nature of the data set: Cytotoxicity in mislocalization screen (death of all cells in well). The conditions noted are these: drug caused death of all cells in well at 30 μM.

The source of these data is patent publication US12043602B2, “Fendiline derivatives” (The Board of Regents of the University of Texas System, priority 2019, dated 2024).

Like-named read-outs stand apart in the source and are kept apart here.

Regarding `COc1ccc([C@@H](C)N(CC=C(c2ccccc2)c2ccccc2)C(=O)CN2CCN(C)CC2)cc1` [PW125, (R)-N-(3,3-diphenylallyl)-N-(1-(4-methoxyphenyl)ethyl)-2-(4-methylpiperazin-1-yl)acetamide], on mGFP-K-RASG12V (listed as 20), the IC50 amounted to 7.1 µM and the Emax stood at 0.51 ± 0.02. Also, at mGFP-K-RASG12V, the IC50 was 7.09 µM and the Emax turned out to be 0.514. In data set [1], the “Cytotoxic at 30 μM” value is recorded as “Yes”.
`COc1ccc([C@@H](C)N(CC=C(c2ccccc2)c2ccccc2)C(=O)CN2CCC(O)CC2)cc1` [PW126, (R)-N-(3,3-diphenylallyl)-2-(4-hydroxypiperidin-1-yl)-N-(1-(4-methoxyphenyl)ethyl)acetamide]: on mGFP-K-RASG12V, the IC50 was 2.19 µM and the Emax came to 0.412. The “Cytotoxic at 30 μM” value in data set [1] is “Yes”.
As to `O=C(c1ccc(F)cc1)N(CC=C(c1ccccc1)c1ccccc1)CCN1CCCC1` [PW276, N-(3,3-diphenylallyl)-4-fluoro-N-(2-(pyrrolidin-1-yl)ethyl)benzamide], at mGFP-K-RASG12V, the IC50 amounted to 4.8 µM and the Emax is given as 0.572. Moreover, in data set [1], the “Cytotoxic at 30 μM” value is listed as “Yes”.
Consider `O=S(=O)(c1ccc(F)cc1)N(CC=C(c1ccccc1)c1ccccc1)CCN1CCCC1` [PW277, N-(3,3-diphenylallyl)-4-fluoro-N-(2-(pyrrolidin-1-yl)ethyl)benzenesulfonamide], for which, at mGFP-K-RASG12V, the IC50 stood at 3.97 µM and the Emax is listed as 0.592. Besides, the “Cytotoxic at 30 μM” value in data set [1] is on record as “Yes”.
The like results for `Fc1ccc(CN(CC=C(c2ccccc2)c2ccccc2)CCN2CCCC2)cc1` [PW278, N-(4-fluorobenzyl)-3,3-diphenyl-N-(2-(pyrrolidin-1-yl)ethyl)prop-2-en-1-amine] were, in that order, 8.85 µM, 0.739 and “Yes”.
On to `O=C(Nc1ccc(F)cc1)N(CC=C(c1ccccc1)c1ccccc1)CCN1CCCC1` [PW279, 1-(3,3-diphenylallyl)-3-(4-fluorophenyl)-1-(2-(pyrrolidin-1-yl)ethyl)urea], for which, on mGFP-K-RASG12V, the IC50 was 3.4 µM and the Emax stood at 0.608. Also, the “Cytotoxic at 30 μM” value in data set [1] is on record as “Yes”.
For the molecule `O=C(OCc1ccccc1)N(CC=C(c1ccccc1)c1ccccc1)CCN1CCCC1` [PW280, benzyl (3,3-diphenylallyl)(2-(pyrrolidin-1-yl)ethyl)carbamate], at mGFP-K-RASG12V, the IC50 was 6.03 µM and the Emax came to 0.709. The “Cytotoxic at 30 μM” value in data set [1] is given as “Yes”.
On to `Nc1nccnc1C(=O)N(CC=C(c1ccccc1)c1ccccc1)CCN1CCCC1` [PW282, 3-amino-N-(3,3-diphenylallyl)-N-(2-(pyrrolidin-1-yl)ethyl)pyrazine-2-carboxamide], for which, on mGFP-K-RASG12V, the IC50 is 12.5 µM and the Emax stood at 0.592. For the same molecule, in data set [1], the “Cytotoxic at 30 μM” value is given as “No”.
Take `O=C(c1cc(-c2ccc(Cl)cc2)on1)N(CC=C(c1ccccc1)c1ccccc1)CCN1CCCC1` [PW283, 5-(4-chlorophenyl)-N-(3,3-diphenylallyl)-N-(2-(pyrrolidin-1-yl)ethyl)isoxazole-3-carboxamide]: the Emax on mGFP-K-RASG12V was 0.324. In data set [1], the “Cytotoxic at 30 μM” value is listed as “Yes”.
In turn, `O=C(/C=C/c1ccccc1)N(CC=C(c1ccccc1)c1ccccc1)CCN1CCCC1` [PW284, N-(3,3-diphenylallyl)-N-(2-(pyrrolidin-1-yl)ethyl)cinnamamide] returned an Emax on mGFP-K-RASG12V of 0.549. Also, in data set [1], the “Cytotoxic at 30 μM” value is listed as “Yes”.
On to `O=C(c1cnc2ccccc2n1)N(CC=C(c1ccccc1)c1ccccc1)CCN1CCCC1` [PW285, N-(3,3-diphenylallyl)-N-(2-(pyrrolidin-1-yl)ethyl)quinoxaline-2-carboxamide], for which, on mGFP-K-RASG12V, the IC50 is 4.52 µM and the Emax came out at 0.62. In addition, the “Cytotoxic at 30 μM” value in data set [1] is on record as “Yes”.
As for `O=C(c1cc2ccccn2n1)N(CC=C(c1ccccc1)c1ccccc1)CCN1CCCC1` [PW286, N-(3,3-diphenylallyl)-N-(2-(pyrrolidin-1-yl)ethyl)pyrazolo[1,5-a]pyridine-2-carboxamide], on mGFP-K-RASG12V, the IC50 was 6.63 µM and the Emax is reported as 0.801. Also, the “Cytotoxic at 30 μM” value in data set [1] was “No”.
`C(CN(CCN1CCCC1)Cc1cc2cccnc2[nH]1)=C(c1ccccc1)c1ccccc1` [PW293, N-((1H-pyrrolo[2,3-b]pyridin-2-yl)methyl)-3,3-diphenyl-N-(2-(pyrrolidin-1-yl)ethyl)prop-2-en-1-amine]: at mGFP-K-RASG12V, the IC50 came to 3.37 µM and the Emax came to 0.83. Besides, the “Cytotoxic at 30 μM” value in data set [1] is “Yes”.
On to `Brc1cccc(CN(CC=C(c2ccccc2)c2ccccc2)CCN2CCCC2)n1` [PW295, N-((6-bromopyridin-2-yl)methyl)-3,3-diphenyl-N-(2-(pyrrolidin-1-yl)ethyl)prop-2-en-1-amine], for which, on mGFP-K-RASG12V, the IC50 was found to be 2.82 µM and the Emax is recorded as 0.801. The “Cytotoxic at 30 μM” value in data set [1] is given as “Yes”.
As for `C[C@H](c1ccc(F)cc1)N(CC=C(c1ccccc1)c1ccccc1)CCn1ccc2cccnc21` [PW297, (R)-N-(2-(1H-pyrrolo[2,3-b]pyridin-1-yl)ethyl)-N-(1-(4-fluorophenyl)ethyl)-3,3-diphenylprop-2-en-1-amine], at mGFP-K-RASG12V, the IC50 was found to be 2.27 µM and the Emax turned out to be 0.685. In data set [1], the “Cytotoxic at 30 μM” value is “No”.
With `Cc1cc(C)n(CCN(CC=C(c2ccccc2)c2ccccc2)[C@H](C)c2ccc(F)cc2)n1` [PW299, (R)-N-(2-(3,5-dimethyl-1H-pyrazol-1-yl)ethyl)-N-(1-(4-fluorophenyl)ethyl)-3,3-diphenylprop-2-en-1-amine], on mGFP-K-RASG12V, the IC50 is 0.654 µM and the Emax was determined as 0.696. Also, the “Cytotoxic at 30 μM” value in data set [1] was “No”.
As for `C[C@H](c1ccc(F)cc1)N(CC=C(c1ccccc1)c1ccccc1)CCn1cc(CCO)nn1` [PW303, (R)-2-(1-(2-((3,3-diphenylallyl)(1-(4-fluorophenyl)ethyl)amino)ethyl)-1H-1,2,3-triazol-4-yl)ethan-1-ol], on mGFP-K-RASG12V, the IC50 worked out at 4.13 µM and the Emax is 0.675. Also, in data set [1], the “Cytotoxic at 30 μM” value is recorded as “Yes”.
For the molecule `C[C@H](c1ccc(F)cc1)N(CC=C(c1ccccc1)c1ccccc1)CCn1cc(CO)nn1` [PW304, (R)-(1-(2-((3,3-diphenylallyl)(1-(4-fluorophenyl)ethyl)amino)ethyl)-1H-1,2,3-triazol-4-yl)methanol], on mGFP-K-RASG12V, the IC50 was 2.77 µM and the Emax is recorded as 0.794. The “Cytotoxic at 30 μM” value in data set [1] is listed as “No”.
For `C[C@H](c1ccc(F)cc1)N(CC=C(c1ccccc1)c1ccccc1)CCn1cc(CN)nn1` [PW305, (R)-N-(2-(4-(aminomethyl)-1H-1,2,3-triazol-1-yl)ethyl)-N-(1-(4-fluorophenyl)ethyl)-3,3-diphenylprop-2-en-1-amine], at mGFP-K-RASG12V, the IC50 is 0.507 µM and the Emax turned out to be 0.609. Besides, the “Cytotoxic at 30 μM” value in data set [1] is “Yes”.
With `C[C@H](c1ccc(F)cc1)N(CC=C(c1ccccc1)c1ccccc1)CCn1cc(CN(C)C)nn1` [PW306, (R)-N-(2-(4-((dimethylamino)methyl)-1H-1,2,3-triazol-1-yl)ethyl)-N-(1-(4-fluorophenyl)ethyl)-3,3-diphenylprop-2-en-1-amine], at mGFP-K-RASG12V, the IC50 was 3.19 µM and the Emax is on record as 0.666. For the same molecule, in data set [1], the “Cytotoxic at 30 μM” value is “Yes”.
Molecule `COC(=O)c1cn(CCN(CC=C(c2ccccc2)c2ccccc2)[C@H](C)c2ccc(F)cc2)nn1` [PW307, methyl (R)-1-(2-((3,3-diphenylallyl)(1-(4-fluorophenyl)ethyl)amino)ethyl)-1H-1,2,3-triazole-4-carboxylate] showed an Emax on mGFP-K-RASG12V of 0.628. Also, in data set [1], the “Cytotoxic at 30 μM” value is listed as “No”.
Regarding `C[C@H](c1ccc(F)cc1)N(CC=C(c1ccccc1)c1ccccc1)CCn1cc(-c2ccc(F)cc2)nn1` [PW308, (R)-N-(2-(4-(4-fluorophenyl)-1H-1,2,3-triazol-1-yl)ethyl)-N-(1-(4-fluorophenyl)ethyl)-3,3-diphenylprop-2-en-1-amine], on mGFP-K-RASG12V, the IC50 came to 3.32 µM and the Emax is given as 0.721. Besides, the “Cytotoxic at 30 μM” value in data set [1] was “No”.
Take `C[C@H](c1ccc(F)cc1)N(CCN1CCCC1)C(=O)Nc1ccc(C(F)(F)F)cc1` [PW321, (R)-1-(1-(4-Fluorophenyl)ethyl)-1-(2-(pyrrolidin-1-yl)ethyl)-3-(4-(trifluoromethyl)phenyl)urea]: the Emax at mGFP-K-RASG12V came to 0.587. The “Cytotoxic at 30 μM” value in data set [1] is listed as “No”.
On mGFP-K-RASG12V, `C[C@H](c1ccc(F)cc1)N(CCN1CCCC1)C(=O)c1ccc(C(F)(F)F)cc1` [PW322, (R)-N-(1-(4-Fluorophenyl)ethyl)-N-(2-(pyrrolidin-1-yl)ethyl)-4-(trifluoromethyl)benzamide] displayed an Emax of 0.662. Besides, the “Cytotoxic at 30 μM” value in data set [1] was “No”.
In the case of `C[C@H](c1ccc(F)cc1)N(CCN1CCCC1)C(=O)c1cc(-c2ccccc2)ccn1` [PW324, (R)-N-(1-(4-Fluorophenyl)ethyl)-4-phenyl-N-(2-(pyrrolidin-1-yl)ethyl)picolinamide], at mGFP-K-RASG12V, the IC50 came out at 2.9 µM and the Emax is listed as 0.767. Also, the “Cytotoxic at 30 μM” value in data set [1] is listed as “No”.
In the case of `Cc1ccc(C(=CCN(CCN2CCCC2)[C@H](C)c2ccc(F)cc2)c2ccc(C)cc2)cc1` [PW327, (R)-N-(1-(4-Fluorophenyl)ethyl)-N-(2-(pyrrolidin-1-yl)ethyl)-3,3-di-p-tolylprop-2-en-1-amine], on mGFP-K-RASG12V, the IC50 was determined as 7.8 µM and the Emax worked out at 0.808. Further, the “Cytotoxic at 30 μM” value in data set [1] was “Yes”.

By IC50 is commonly meant the concentration that inhibits the measured activity by half.
